In article PMC5431371, “Crystal structure-based discovery of a novel synthesized PARP1 inhibitor (OL-1) with apoptosis-inducing mechanisms in triple-negative breast cancer” (Scientific Reports, 2016):
Values joined by “and” are separate entries in the source; they are usually repeats but may differ in a detail not shown here. Equal values may be shown once. Read-outs that look alike come from different tables or passages of the source.

Key:
MDA-MB-436 cells [1] = experiment: Cell viability assay (MTT); type: cell-based; conditions: Homo sapiens
Method: 5 × 10^3 cells were seeded into each well in 96-well microplates and cultured for 24 h. […] After drug treatment, the cell viabilities were detected by MTT assay.

Recombinant Human PARP1 = target: T1, Recombinant Human PARP1 (Homo sapiens, UniProt P09874); experiment: PARP1 enzymatic inhibition assay (Universal Chemiluminescent PARP Assay Kit); type: biochemical; conditions: mean ± SD, at least three independent experiments
T1 construct: purchased Trevigen
Method: The PARP1 enzymatic inhibition assay was performed by using Universal Chemiluminescent PARP Assay Kit (Trevigen, Gaithersburg, MD, USA) according to the manufacturer’s instruction and previous report. Briefly, serial dilutions of inhibitor were added to appropriate wells followed by addition of diluted PARP1 enzyme (0.5 Unit/well). After incubation for 10 min at room temperature, distributing 25 μL of 1X PARP Cocktail into each well and incubating the strip wells at room temperature for 60 min. The strip wells were washed with 1X PBS and 0.1% Triton X-100 for twice. Then 50 µL/well of diluted Strep-HRP was added to each well and incubate at room temperature for 60 min. After another wash with PBS, mixing equal volumes of PeroxyGlow™ A and B together and adding 100 µl per well. Finally, immediately taking the chemiluminescent readings. The IC50 values of PARP1 inhibitors were determined using Prism 6 software (GraphPad, San Diego, CA, USA).

MDA-MB-436 xenograft = MDA-MB-436 xenograft tumor model; type: in vivo, BALB/c nude mice
Method: All experiments protocols used in this study were carried out in accordance with guidelines of the animal ethics committee (Sichuan University). Thirty-two 6–8 weeks-old female BALB/c nude mice (18–20 g) were subcutaneously injected with MDA-MB-436 cells (1 × 10^7 cells/mouse). Until the tumor volumes reached 100 mm^3 (calculated as V = L × W^2/2), the mice were randomly divided into four groups. […] Body weight and the tumor size were determined every day until the end of the study. All mice were sacrificed at the end of drug treatment. The organs of mice such as spleen, liver and kidney were harvested and weighed. Tumor tissues were detached and fixed in 4% paraformaldehyde for immunohistochemistry or lysed for western blotting.
Immunohistochemical analysis was carried out by the method of our previous study. Samples were dehydrated using gradient ethanol, and subsequently paraffin embedded. The paraffin embedded samples were sliced into 5 μm thickness sections. […] Nuclei were counterstained with hematoxylin. The numbers of positive cells were counted in at least 6 fields for each section and statistical analyzed.

Bax, Bcl-2, Caspase-3 = experiment: Western blot analysis of apoptotic markers; type: cell-based; conditions: MDA-MB-436 cells
Method: (§1) Western blot analysis was carried out briefly as previous description. MDA-MB-436 cells were exposed to OL-1 for indicated time. Both floating cells and adherent were collected. The cell pellets were resuspended with RIPA lysis buffer and PMSF (1 mM) (Beyotime, Haimen, Jiangsu, China) and lysed at 4 °C for 1 h. After 12,000 rpm centrifugation for 10 min, the supernatant was collected to determine the protein content by the BCA Protein Assay Kit (CWBIO, Beijing, China). […] After pre-blocking in TBST with 5% non-fat milk or BSA for 1 h, the membranes were incubated with primary antibodies overnight at 4 °C, and subsequently incubated with HRP-conjugated secondary antibody at room temperature for 1–2 h. Positive signals were detected by using ECL as the HRP substrate after washing with TBST solution.

MDA-MB-436 cells [2] = experiment: Apoptosis assay (Annexin V-FITC/PI double staining, flow cytometry); type: cell-based; conditions: MDA-MB-436, 0.25-1 μM, 24 h
Method: MDA-MB-436 cells (1 × 10^5 per well) were seeded into 6-well microplates in the presence or absence of OL-1 and cultured for 24 h, then incubated with 500 μL Hoechst 33258 staining solution (0.5 μg/mL) for 30 min at 37 °C. After staining, the apoptotic features were observed under fluorescence microscope. Apoptotic ratio was measured by Annexin-V-FLUOS Staining Kit (Roche, Germany) according to the manufacturer’s protocol followed by flow cytometry (FACS) analysis (Becton Dickinson, Franklin Lakes, NJ).

PARP1 and PAR = experiment: Western blot analysis of PARP1 and PAR in treated cells; type: cell-based; conditions: MDA-MB-436 cells
Method: as §1

MDA-MB-436 cells [3] = experiment: Cell migration assay (scratch wound); type: cell-based; conditions: 24 h
Method: MDA-MB-436 cells were cultured in 24-well microplates and scratch-wounded by sterilized pipettes. Then the cells were washed with PBS and cultured with normal medium or OL-1. After 24 h incubation, pictures were taken by phase-contrast microscope.

[4] = MDA-MB-436 cells (BRAC1 mutant breast cancer), mean ± SD, at least three independent experiments, read-out: Anti-cell viability (IC50, μM) MDA-MB-436
[5] = recombinant human PARP1, read-out: Enzymatic inhibition (IC50, μM) PARP1
[6] = high dose 25 mg/kg/d i.p., 14 days, vs Iniparib 100 mg/kg/d and low dose 12.5 mg/kg/d, P < 0.05

T1 sequence (P09874 whole entry): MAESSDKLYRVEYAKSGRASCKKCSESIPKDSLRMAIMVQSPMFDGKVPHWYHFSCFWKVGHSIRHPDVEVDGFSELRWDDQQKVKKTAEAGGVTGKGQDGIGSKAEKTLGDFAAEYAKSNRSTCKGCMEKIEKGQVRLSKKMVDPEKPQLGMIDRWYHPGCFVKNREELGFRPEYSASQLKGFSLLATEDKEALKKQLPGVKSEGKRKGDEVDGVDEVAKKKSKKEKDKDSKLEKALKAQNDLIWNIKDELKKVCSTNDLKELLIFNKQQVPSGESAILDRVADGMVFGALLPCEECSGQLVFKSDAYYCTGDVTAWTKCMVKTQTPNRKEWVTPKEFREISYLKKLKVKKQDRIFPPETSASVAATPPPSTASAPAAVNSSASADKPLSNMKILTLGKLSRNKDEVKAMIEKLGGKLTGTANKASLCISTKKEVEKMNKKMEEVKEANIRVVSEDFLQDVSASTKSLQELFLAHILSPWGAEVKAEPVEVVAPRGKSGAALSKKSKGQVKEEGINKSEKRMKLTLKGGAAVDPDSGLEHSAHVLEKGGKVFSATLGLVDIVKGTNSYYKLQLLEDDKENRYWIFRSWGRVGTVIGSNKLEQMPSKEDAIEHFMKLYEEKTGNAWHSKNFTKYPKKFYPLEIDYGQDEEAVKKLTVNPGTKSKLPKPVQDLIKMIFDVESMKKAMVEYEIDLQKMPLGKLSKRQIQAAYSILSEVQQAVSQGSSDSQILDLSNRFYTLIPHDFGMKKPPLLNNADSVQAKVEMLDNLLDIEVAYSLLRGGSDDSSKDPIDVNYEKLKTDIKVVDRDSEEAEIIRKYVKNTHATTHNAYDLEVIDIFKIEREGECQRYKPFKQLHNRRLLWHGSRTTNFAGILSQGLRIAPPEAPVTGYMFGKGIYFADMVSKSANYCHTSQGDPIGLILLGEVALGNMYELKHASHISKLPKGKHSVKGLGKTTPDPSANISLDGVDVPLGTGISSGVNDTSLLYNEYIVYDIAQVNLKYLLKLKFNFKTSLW

| Compound | IC50 (MDA-MB-436 cells [1]; [4]) [µM] | IC50 (Recombinant Human PARP1; [5]) | further results |
| --- | --- | --- | --- |
| CN(C)CCC=C1c2ccccc2CCc2ccccc21 [11d (PA-10), 3-(10,11-dihydro-5H-dibenzo[a,d][7]annulen-5-ylidene)-N,N-dimethylpropan-1-amine] | 5.44 ± 1.01 | 1.65 ± 0.25 µM |  |
| CN(C)CC/C=C1/c2ccccc2COc2ccc(CC(=O)NN)cc21 [33e (OL-1)] | 0.736 ± 0.223 |  | loss of body weight (MDA-MB-436 xenograft; 25 mg/kg/d i.p., during the 14 days of treatment, P < 0.01): 10.05%; liver, spleen and kidney weights (MDA-MB-436 xenograft; OL-1 treated groups (12.5 and 25 mg/kg/d i.p.)): not changed; tumor volumes (MDA-MB-436 xenograft; [6]): lower than the positive control; tumor weights (MDA-MB-436 xenograft; [6]): lower than the positive control; positive ratio of Ki-67 in tumor tissues (MDA-MB-436 xenograft; immunohistochemistry, compared to the control group): significantly reduced; decrease of body weights (MDA-MB-436 xenograft; low dose 12.5 mg/kg/d i.p., 14 days): not obvious; Bax expression (Bax, Bcl-2, Caspase-3): upregulated; Bcl-2 expression (Bax, Bcl-2, Caspase-3): downregulated; cleavage of caspase-3 (Bax, Bcl-2, Caspase-3): increased; apoptotic cell ratio (MDA-MB-436 cells [2]): obviously increased in a concentration-dependent manner; expression of PAR (western blot) (PARP1 and PAR): decreased; activity of PARP (western blot) (PARP1 and PAR; no cleavage of PARP): significantly inhibited; IC50 (MDA-MB-436 cells [1]; BRCA1 mutant MDA-MB-436 cells, MTT, Fig. 11A, read-out: anti-proliferative effects IC50): 5.14 µM; cell migration (MDA-MB-436 cells [3]): could inhibit cell migration; IC50 (Recombinant Human PARP1; Enzymatic inhibition (IC50, μM) PARP1, recombinant human PARP1): 0.079 ± 0.013 µM |
| CNCC=C1c2ccccc2CCc2ccccc21 [Compound 11a] |  | > 20 µM |  |
| CN(C)CC=C1c2ccccc2CCc2ccccc21 [Compound 11b] | > 20 | 16.2 ± 1.24 µM |  |
| CNCCC=C1c2ccccc2CCc2ccccc21 [Compound 11c] | > 20 | 4.21 µM and 14.2 µM |  |
| CNCCCC=C1c2ccccc2CCc2ccccc21 [Compound 11e] |  | > 20 µM |  |
| CN(C)CCCC=C1c2ccccc2CCc2ccccc21 [Compound 11f] |  | > 20 µM |  |
| C(=C1c2ccccc2CCc2ccccc21)c1ccccc1 [Compound 15a] |  | > 20 µM |  |
| Fc1ccc(C=C2c3ccccc3CCc3ccccc32)cc1 [Compound 15b] |  | > 20 µM |  |
| Clc1ccc(C=C2c3ccccc3CCc3ccccc32)cc1 [Compound 15c] |  | > 20 µM |  |
| Brc1ccc(C=C2c3ccccc3CCc3ccccc32)cc1 [Compound 15d] |  | > 20 µM |  |
| Cc1ccc(C=C2c3ccccc3CCc3ccccc32)cc1 [Compound 15e] |  | > 20 µM |  |
| CN(C)CC=C1c2ccccc2COc2ccccc21 [Compound 19a] | > 20 | 13.2 ± 2.33 µM |  |
| CN(C)CCC=C1c2ccccc2COc2ccccc21 [Compound 19b] |  | 0.75 ± 0.27 µM |  |
| CN(C)CCCC=C1c2ccccc2COc2ccccc21 [Compound 19c] |  | > 20 µM |  |
| CN(C)CC=C1c2ccccc2CSc2ccccc21 [Compound 23a] | > 20 | 19.2 ± 3.05 µM |  |
| CN(C)CCC=C1c2ccccc2CSc2ccccc21 [Compound 23b] | 17.9 ± 2.11 | 1.04 ± 0.17 µM |  |
| CN(C)CCCC=C1c2ccccc2CSc2ccccc21 [Compound 23c] |  | > 20 µM |  |
| CN(C)CC=C1c2ccccc2Cc2ccccc21 [Compound 26a] |  | > 20 µM |  |
| CN(C)CCC=C1c2ccccc2Cc2ccccc21 [Compound 26b] | > 20 | 17.9 ± 2.46 µM |  |
| O=C(c1cc(Cc2n[nH]c(=O)c3ccccc23)ccc1F)N1CCN(C(=O)C2CC2)CC1 [Olaparib, reference compound] |  |  | IC50 (MDA-MB-436 cells [1]; MDA-MB-436, read-out: Anti-cell viability (IC50, μM) MDA-MB-436): 1.12 ± 0.77 µM |

The next lines start with results.

| IC50 (MDA-MB-436 cells [1]; [4]) [µM] | IC50 (Recombinant Human PARP1; [5]) | Compound | further results |
| --- | --- | --- | --- |
|  | > 20 µM | CN(C)CCCC=C1c2ccccc2Cc2ccccc21 [Compound 26c] |  |
|  | > 20 µM | CN(C)CC=C1c2ccccc2Oc2ccccc21 [Compound 28a] |  |
|  | > 20 µM | CN(C)CCC=C1c2ccccc2Oc2ccccc21 [Compound 28b] |  |
|  | > 20 µM | CN(C)CCCC=C1c2ccccc2Oc2ccccc21 [Compound 28c] |  |
| > 20 | 11.2 ± 1.16 µM | CN(C)CC/C=C1/c2ccccc2COc2ccc(CC(=O)O)cc21 [Compound 31] |  |
| > 20 | 9.11 µM and 19.1 µM | COC(=O)Cc1ccc2c(c1)C(=CCCN(C)C)c1ccccc1CO2 [Compound 33a] |  |
|  | > 20 µM | CCOC(=O)Cc1ccc2c(c1)C(=CCCN(C)C)c1ccccc1CO2 [Compound 33b] |  |
| 8.23 ± 1.56 | 7.35 ± 1.32 µM | CC(C)NC(=O)Cc1ccc2c(c1)C(=CCCN(C)C)c1ccccc1CO2 [Compound 33j] |  |
| > 20 | 19.1 ± 2.16 µM | CN(C)CCC=C1c2ccccc2COc2ccc(CC(=O)NCCO)cc21 [Compound 33k] |  |
|  | > 20 µM | CN(C)CCC=C1c2ccccc2COc2ccc(CC(=O)NC3CC3)cc21 [Compound 33n] |  |
|  | > 20 µM | COCCCNC(=O)Cc1ccc2c(c1)C(=CCCN(C)C)c1ccccc1CO2 [Compound 33o] |  |
| 14.3 ± 1.56 |  | NC(=O)c1ccc(I)c([N+](=O)[O-])c1 [Iniparib, reference compound] | liver weights (MDA-MB-436 xenograft; 100 mg/kg/d, 14 days, P < 0.01): significantly decreased; spleen weights (MDA-MB-436 xenograft; 100 mg/kg/d, 14 days, P < 0.05): affected |
